# Measurements reported in patent publication US20250298027A1, “METHOD OF EVALUATING SMALL MOLECULE DISTRIBUTION USING TELLUROPHENE ANALOGUES” (THE GOVERNING COUNCIL OF THE UNIVERSITY OF TORONTO, priority 2022, published 2025).
# Legend:
# [1] = system: HL-60 cells; assay: Competitive binding / cell labelling by mass cytometry (CyTOF) in HL-60 cells; format: cell-based
# Protocol: To determine if cellular labelling with 1 was dependent on the presence of Top2-DNA binding sites a competitive binding MC experiment was carried out using Teniposide. HL-60 cells were treated with teniposide (10 μM) for two hours to saturate intracellular Top2-DNA ternary complexes with an unlabelled ligand, next 1 (2 or 10 μM) was introduced into the cell media and the suspension was gently mixed. After two hours, cells were harvested and washed three times with PBS. Cells were then fixed and permeabilized, followed by DNA staining with Ir-intercalator. Cell pellets were analyzed by MC for ^130Te content (FIG. 6).
# Additionally, co-incubation experiments were conducted where HL-60 cells were treated with a cocktail of 1 (2 μM) and either 2, 10, or 20 μM teniposide (FIG. 6B). […] Without wishing to be bound by theory, it is hypothesized that the lack of competitive labelling observed in these experiments may be due to a combination of inhibition of Top2 and a considerable degree of non-specific binding with other cellular components. Several reports have documented the non-specific accumulation of etoposide and teniposide via oxidation catalyzed by cytochrome P450-dependent monooxygenases, peroxidases and tyrosinase enzymes. […] It is also plausible these reactive species modify other intracellular proteins, thus contributing to drug accumulation inside cells, but in a promiscuous and irreversible manner. […] In this case, the non-specific binding may dominate the target binding of teniposide, and likely its analogue Te-teniposide 1.
# CYTOF® labelling: For pre-saturation experiment, 3×10^6 HL-60 cells (5×10^5 cells/mL) were incubated with appropriate teniposide concentration for 2 hours at 37° C. in a humidified atmosphere of 5% CO2 in air. Compound 1 was pipetted into the cell suspension and gently mixed. Cells were further incubated for 2 hours and then centrifuged for 6 min at 300×g, and the media was aspirated. For controls, HL-60 cells were treated with teniposide or compound 1 for 4 hours consecutively. […] Samples were then injected into the CYTOF® Helios™ and analyzed.
# [2] = system: pH2AX^Ser139; assay: pH2AX Western blotting in PANC-1 cells; format: cell-based, Human; conditions: 1 μM, 24 and 48 hours
# Protocol: Next, the ability of 1 to induce DSBs—the dominant type of DNA damage resulting from Top2 inhibition was investigated. In response to DSBs, a cascade of DNA repair mechanisms are triggered, including-phosphorylation of the histone variant H2AX at Ser139. Thus, the level of pH2AX^Ser139 serves as a reliable marker for Top2-linked DSBs. Western blotting was used to measure pH2AX^Ser139 in PANC-1 cells treated with 1 μM of either 1 or teniposide for 24 and 48 hours.
# pH2AX Blotting: PANC-1 cells (0.5×10^6) cells were seeded in 60 mm plastic petri dishes (Corning Inc. NY) and incubated for 18 h. The spent medium is removed and replaced with fresh medium containing drug ([…]) and incubated for either 24 or 48h. Control cells were treated with DMSO only. The cells were then lysed with RIPA buffer (25 mM Tris·HCl PH 7.6, 150 mM NaCl, 1% NP-40, 1% sodium deoxycholate, 0.1% SDS) (ThermoFisher Scientific) containing Halt Protease Inhibitor Cocktail (Cat. No. 78410) and Halt Phosphatase Inhibitor Cocktail (Cat. No. 78420) as per manufacturer's protocol. […] Antibodies (Abcam, Cambridge, MA) targeting the following proteins were used H2AX (S139) (ab11174, polyclonal) and β-tubulin (ab6046, polyclonal).
structure (smiles),measurement,setting,value
"COc1cc([C@@H]2c3cc4c(cc3[C@@H](OC3OC5COC(c6ccc[te]6)OC5C(O)C3O)[C@H]3COC(=O)C23)OCO4)cc(OC)c1O (stereo partly shown) [Compound 1, Tellurium-labelled teniposide]",competition for Top2 in co-incubation,"[1]; 1 (2 μM) with 2, 10 or 20 μM teniposide",no competition
same,cell labelling (^130Te) by MC,[1]; 2 and 10 μM,readily detected
same,reduction of ^130Te signal in cells pretreated with unlabeled teniposide,"[1]; teniposide 10 μM for two hours, then 1 at 2 or 10 μM for two hours",not observed
same,levels of pH2AX^Ser139 relative to DMSO-treated control,[2],Increased levels
